# Reference: patent US7112676B2, “Pyrimido compounds having antiproliferative activity” (Hoffmann-La Roche Inc., priority 2002, dated 2006)
# What was measured:
# KDR = biological target: T1, KDR (Homo sapiens, UniProt P35968); assay: KDR kinase HTRF assay; type: biochemical; conditions: 0.3 mM ATP, read-out: IC50 (μM) - Enzyme Inhibition Assays KDR
# T1 construct: EEE-tag
# Procedure: (§1) To determine inhibition of KDR, FGFR, EGFR, and PDGFR activity, kinase assays were conducted using an HTRF (Homogeneous Time Resolved Fluorescence) assay. This assay is described in A. J. Kolb et. al., Drug Discovery Today, 1998, 3(7), p 333.
# Prior to kinase reaction, recombinant EEE-tagged KDR was activated in the presence of activation buffer (50 mM HEPES, pH 7.4, 1 mM DTT, 10% glycerol, 150 mM NaCl, 0.1 mM EDTA, 26 mM MgCl2, and 4 mM ATP). The enzyme was incubated at 4° C. for 1 hour.
# (§2) Kinase activity assays were performed in 96-well polypropylene plates (Falcon) with a total volume of 90 μL in each well. Each well contained 1 μM KDR substrate (Biotin-EEEEYFELVAKKKK), 1 nM activated KDR, and a test compound with one of 8 assay concentrations ranging from 100 μM to […] (1:5 serial dilution). The kinase activity assay was done in the presence of 100 mM HEPES, pH 7.4, 1 mM DTT, 0.1 mM Na2VO4, 25 mM MgCl2, 50 mM NaCl (from KDR stock solution), 1% DMSO (from compound), 0.3 mM ATP (at Km concentration) and 0.02% BSA. The reaction was incubated at 37° C. for 30 minutes. To stop the KDR reaction, 72 μL of reaction mixture was transferred into a STOP plate containing 18 μL of revelation buffer (20 mM EDTA, 50 mM HEPES, pH 7.4, 0.02% BSA, 10 nM Eu-labelled anti-pY antibody (final conc. 2 nM), and 100 nM streptavidin (final conc. 20 nM)). After mixing, 35 μL of solution was transferred into duplicate wells of a 384-well black plate (Costar), and read at 615/665 nm on a Wallac Victor 5 reader.
# (§3) Compound IC50 values were determined from duplicate sets of data, and calculated by using Excel and fitting data to equation Y=[(a−b)/{1+(X/c)^d]+b, where a and b are enzyme activity in the presence of no test inhibitor compound and an infinite amount of inhibitor test compound, respectively, c is the IC50 and d is the hill constant of the compound response. The IC50 value is the concentration of test compound that reduces by 50% the enzyme activity under the test conditions described.
# PDGFR = PDGFR kinase HTRF assay; type: biochemical; conditions: 2.3 μM ATP, read-out: IC50 (μM) - Enzyme Inhibition Assays PDGFR
# Procedure: as §1, §2
# (§4) The PDGFR kinase activity assay was performed with 1 μM substrate (Biotin-EEEEYFELV), 1.0 nM PDGFR, test compounds, 100 mM HEPES, pH 7.4, 1 mM DTT, 5 mM MgCl2, 2 mM MnCl2, 1% DMSO, 2.3 μM ATP (Km for PDGFR), 0.1 mM Na2VO4, and 0.02% BSA. The rest of the assay was performed in the same manner as the KDR assay.
# as §3
# FGFR = biological target: T2, FGFR; assay: FGFR kinase HTRF assay; type: biochemical; conditions: 10 μM ATP, read-out: IC50 (μM) - Enzyme Inhibition Assays FGFR
# T2 construct: fused on or other part: GST tag
# Procedure: as §1, §2
# FGFR, EGFR, and PDGFR activity assays were carried out as described above for the KDR activity assay with the following differences. GST-tagged FGFR enzyme was activated at room temperature for 1 hour in the following activation buffer: 100 mM HEPES, pH 7.4, 50 mM NaCl, 20 mM MgCl2, and 4 mM ATP. The kinase activity assay was performed with 1 μM substrate (Biotin-EEEEYFELV), 1.5 nM activated FGFR, and test compound in the presence of 100 mM HEPES, 1 mM DTT, 0.4 mM MgCl2, 0.4 mM MnCl2, 50 mM NaCl, 1% DMSO, 10 μM ATP (Km=8.5 μM for FGFR), 0.1 mM Na2VO4, and 0.02% BSA, in a total volume of 90 μL. The rest of the assay was performed in the same manner as KDR assay.
# as §3
# EGFR = EGFR (Homo sapiens, UniProt P00533); assay: EGFR kinase HTRF assay; type: biochemical; conditions: 0.5 μM ATP, read-out: IC50 (μM) - Enzyme Inhibition Assays EGFR
# Chain of EGFR (P00533 25-1210, species assumed): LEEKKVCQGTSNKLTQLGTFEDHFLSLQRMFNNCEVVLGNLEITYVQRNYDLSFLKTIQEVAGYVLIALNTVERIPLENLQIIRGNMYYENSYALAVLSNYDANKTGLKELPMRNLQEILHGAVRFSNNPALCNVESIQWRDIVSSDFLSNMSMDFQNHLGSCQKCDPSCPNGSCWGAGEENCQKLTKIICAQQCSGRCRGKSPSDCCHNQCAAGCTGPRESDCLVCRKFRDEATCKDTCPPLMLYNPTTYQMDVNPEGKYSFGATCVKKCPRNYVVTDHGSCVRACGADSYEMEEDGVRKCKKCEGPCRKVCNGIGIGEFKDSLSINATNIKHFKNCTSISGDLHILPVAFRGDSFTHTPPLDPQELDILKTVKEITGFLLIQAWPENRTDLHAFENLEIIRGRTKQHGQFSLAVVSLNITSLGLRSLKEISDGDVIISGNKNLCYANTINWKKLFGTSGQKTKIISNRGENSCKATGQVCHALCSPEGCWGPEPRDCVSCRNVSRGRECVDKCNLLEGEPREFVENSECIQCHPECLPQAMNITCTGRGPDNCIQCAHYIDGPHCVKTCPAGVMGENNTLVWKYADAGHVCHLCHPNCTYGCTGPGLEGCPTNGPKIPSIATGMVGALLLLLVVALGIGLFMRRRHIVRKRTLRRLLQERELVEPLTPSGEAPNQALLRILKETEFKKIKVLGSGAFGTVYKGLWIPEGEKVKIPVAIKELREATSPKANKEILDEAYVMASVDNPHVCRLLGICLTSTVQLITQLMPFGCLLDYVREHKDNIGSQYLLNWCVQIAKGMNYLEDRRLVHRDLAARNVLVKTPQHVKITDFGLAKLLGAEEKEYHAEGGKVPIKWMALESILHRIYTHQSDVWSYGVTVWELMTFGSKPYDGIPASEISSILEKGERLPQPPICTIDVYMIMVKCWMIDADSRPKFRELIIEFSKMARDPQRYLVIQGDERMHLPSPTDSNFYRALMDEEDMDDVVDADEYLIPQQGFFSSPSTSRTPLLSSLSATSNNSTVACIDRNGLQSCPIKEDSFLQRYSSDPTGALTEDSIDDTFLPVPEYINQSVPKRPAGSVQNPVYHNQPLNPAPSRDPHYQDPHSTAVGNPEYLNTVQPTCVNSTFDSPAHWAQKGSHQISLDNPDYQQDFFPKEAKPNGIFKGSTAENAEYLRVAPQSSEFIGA
# Procedure: as §1, §2
# as §4, with “EGFR” for “PDGFR”, “1.5” for “1.0”, “EGFR,” for “PDGFR,”, “0.5” for “2.3”, “EGFR),” for “PDGFR),”
# as §3
# VEGF-stimulated HUVEC = VEGF-stimulated HUVEC proliferation assay (BrdU); type: cell-based; conditions: Homo sapiens, VEGF 20 ng per mL, BrdU labeling, 24 hour exposure, read-out: IC50 (μM) of VEGF and FGF-Stimulated HUVEC Proliferation Assays HUVEC/VEFG
# Procedure: (§5) The antiproliferative activity of test compounds of this invention in cell-based assays was evaluated by BrdU assay using the BrdU kit (Roche Biochemicals 1-647-229). Human umbilical vein endothelial cells (HUVEC, Clonetics CC-2519) were cultured in EGM-2 (Clonetics CC-3162) medium and seeded at 10000 cells per well in a volume of 200 μL of EGM-2 (Clonetics CC-3162) media in a 96-well flat bottom plates (Costar 3595) overnight. After 24 hours of growth at 37° C. with 5% CO2, the incubation media was removed slowly by aspiration and the content of each well was washed with 300 μL pre-warmed EBM-2 (Clonetics CC-3156) containing 50 μg per mL of gentamycin and 50 ng per mL of amphotercin-B (Clonetics CC-4083). Subsequently, the remaining media was again aspirated and replaced with 160 μL per well of serum starvation media (EBM-2 supplemented with 1% heat inactivated FBS (Clonetics CC-4102), 50 μg per mL gentamycin and 50 ng per mL of amphotercin-B (Clonetics CC-4083), 10 units per mL of Wyeth-Ayerst heparin (NDC0641-0391-25), and 2 mM L-glutamine (GIBCO 25030-081). After serum starving the cells for 24 hours, 20 μL of test compound at 10× test concentration in serum starvation medium with 2.5% DMSO was added to the appropriate wells. The control wells contained 20 μL of serum starvation medium with 2.5% DMSO. Plates were returned to the incubator for 2 hours. After pre-incubating the cells with the test compounds for 2 hours, 20 μL of growth factors at 10× assay concentration diluted in serum starvation media, FGF at 50 ng per mL, or VEGF (R&D systems 293-VE) at 200 ng per mL were added. The final concentration of FGF in the assay was 5 ng per mL and the final concentration of VEGF in the assays was 20 ng per mL. The growth factor free control wells had 20 μL per well of serum starvation media with the same amount of BSA as the wells with growth factors. The plates were returned to the incubator for an additional 22 hours.
# (§6) After 24 hour exposure to the test compounds, the cells were labeled with BrdU (Roche Biochemicals 1-647-229), by adding 20 μL per well of BrdU labeling reagent that has been diluted (1:100) in serum starvation medium. The plates were then returned to the incubator for 4 hours. The labeling medium was removed by draining the medium onto paper towels. The cells were fixed and DNA denatured by adding 200 μL of fixation/denaturation solution to each well and incubating at room temperature for 45 minutes. The fixation/denaturation solution was drained onto paper towels and to each well was added 100 μL of anti-BrdU-POD and the wells were incubated for 2 hours at room temperature. The antibody solution was removed and the wells were each washed 3–4 times with 300 μl PBS. 100 μL of the TMB substrate solution was added to each well and the wells were incubated at room temperature for 5–8 minutes. The reaction was then stopped by adding 100 μL per well of 1 M phosphoric acid. The plates were read at 450 nm with reference wavelength of 650 nm. The percent inhibition for each test compound was calculated by subtracting the absorbency of the blank (no cells) wells from all wells, then subtracting the division of the average absorbency of each test duplicate by the average of the controls from 1. The final product was then multiplied by 100 (% of inhibition=(1−average absorbency of test duplicate/average of control)100). The IC50 value is the concentration of test compound that inhibits by 50% BrdU labeling, and is a measure of inhibition of cell proliferation. The IC50 is determined from the linear regression of a plot of the logarithm of the concentration versus percent inhibition.
# FGF-stimulated HUVEC = FGF-stimulated HUVEC proliferation assay (BrdU); type: cell-based; conditions: Homo sapiens, FGF 5 ng per mL, BrdU labeling, 24 hour exposure, read-out: IC50 (μM) of VEGF and FGF-Stimulated HUVEC Proliferation Assays HUVEC/bFGFR
# Procedure: as §5, §6
# T1 sequence (P35968 20-1356, species assumed): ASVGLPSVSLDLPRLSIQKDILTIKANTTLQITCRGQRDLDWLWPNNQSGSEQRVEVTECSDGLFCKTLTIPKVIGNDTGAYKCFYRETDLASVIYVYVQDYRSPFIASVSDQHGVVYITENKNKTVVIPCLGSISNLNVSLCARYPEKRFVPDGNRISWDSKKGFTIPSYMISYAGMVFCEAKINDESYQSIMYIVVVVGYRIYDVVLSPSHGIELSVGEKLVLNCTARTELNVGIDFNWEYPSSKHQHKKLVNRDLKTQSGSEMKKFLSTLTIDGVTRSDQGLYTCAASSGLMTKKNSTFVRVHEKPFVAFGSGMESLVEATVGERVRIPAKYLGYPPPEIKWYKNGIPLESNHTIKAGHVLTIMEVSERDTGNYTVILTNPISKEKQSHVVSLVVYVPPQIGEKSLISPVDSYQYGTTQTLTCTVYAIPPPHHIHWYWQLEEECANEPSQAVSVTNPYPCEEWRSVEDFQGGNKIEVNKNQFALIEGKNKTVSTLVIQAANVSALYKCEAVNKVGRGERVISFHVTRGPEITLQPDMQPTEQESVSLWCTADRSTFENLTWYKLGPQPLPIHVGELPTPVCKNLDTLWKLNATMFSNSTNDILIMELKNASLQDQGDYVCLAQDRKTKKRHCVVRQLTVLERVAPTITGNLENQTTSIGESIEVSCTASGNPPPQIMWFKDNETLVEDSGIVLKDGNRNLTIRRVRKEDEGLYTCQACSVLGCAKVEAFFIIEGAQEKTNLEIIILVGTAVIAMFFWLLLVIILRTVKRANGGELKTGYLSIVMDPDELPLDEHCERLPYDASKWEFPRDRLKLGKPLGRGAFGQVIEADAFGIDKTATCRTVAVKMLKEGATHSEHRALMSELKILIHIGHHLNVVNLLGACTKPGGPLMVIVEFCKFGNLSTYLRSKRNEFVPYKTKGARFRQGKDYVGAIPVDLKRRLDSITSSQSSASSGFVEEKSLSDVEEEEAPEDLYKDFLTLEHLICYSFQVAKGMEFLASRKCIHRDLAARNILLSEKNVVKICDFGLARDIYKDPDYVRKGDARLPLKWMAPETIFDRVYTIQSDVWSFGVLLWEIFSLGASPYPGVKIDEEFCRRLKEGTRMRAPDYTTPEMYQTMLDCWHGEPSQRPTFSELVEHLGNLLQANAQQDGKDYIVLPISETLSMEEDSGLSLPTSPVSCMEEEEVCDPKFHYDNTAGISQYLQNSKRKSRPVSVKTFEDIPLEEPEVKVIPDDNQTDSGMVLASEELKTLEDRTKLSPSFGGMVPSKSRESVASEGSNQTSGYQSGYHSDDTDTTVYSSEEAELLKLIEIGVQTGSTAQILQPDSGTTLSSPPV
Compound,IC50 (KDR),IC50 (PDGFR),IC50 (FGFR),IC50 (EGFR),melting point,IC50 (VEGF-stimulated HUVEC),IC50 (FGF-stimulated HUVEC)
"CCC1c2cnc(Nc3ccccc3)nc2N(c2ccccc2)C(=O)N1c1ccc(OC)cc1 (racemic) [Example 7e, (±)-4-Ethyl-3-(4-methoxy-phenyl)-1-phenyl-7-phenylamino-3,4-dihydro-1H-pyrimido[4,5d]pyrimidin-2-one]",< 10 µM,< 10 µM,< 10 µM,< 10 µM,172 to 176 °C,,
"COc1ccc(N2C(=O)N(c3ccccc3)c3nc(Nc4ccccc4)ncc3C2C(C)C)cc1 (racemic) [Example 11e, (±)-4-Isopropyl-3-(4-methoxy-phenyl)-1-phenyl-7-phenylamino-3,4-dihydro-1H-pyrimido[4,5-d]pyrimidin-2-one]",> 10 µM,> 10 µM,> 10 µM,< 10 µM,229 to 235 °C,,
"COc1ccc(Cl)c(N2C(=O)N(c3ccccc3)c3nc(Nc4ccccc4)ncc3C2C)c1 (racemic) [Example 12c, (±)-3-(2-Chloro-5-methoxy-phenyl)-4-methyl-1-phenyl-7-phenylamino-3,4-dihydro-1H-pyrimido[4,5-d]pyrimidin-2-one]",< 10 µM,< 10 µM,< 10 µM,< 10 µM,,,
"COc1ccc(N2C(=O)N(c3ccccc3)c3nc(N(C(C)=O)c4ccccc4)ncc3C2C)cc1 (racemic) [Example 19, (±)-N-[6-(4-Methoxy-phenyl)-5-methyl-7-oxo-8-phenyl-5,6,7,8-tetrahydro-pyrimido[4,5-d]pyrimidin-2-yl]-N-phenyl-acetamide]",< 10 µM,< 10 µM,< 10 µM,< 10 µM,,< 10 µM,< 10 µM
"COc1ccc(N2C(=O)N([C@H]3CC[C@H](O)CC3)c3nc(Nc4ccccc4)ncc3C2C)cc1 (mixture of isomers) [Example 20b, (±)-1-(trans-4-Hydroxy-cyclohexyl)-3-(4-methoxy-phenyl)-4-methyl-7-phenylamino-3,4-dihydro-1H-pyrimido[4,5-d]pyrimidin-2-one]",< 10 µM,< 10 µM,< 10 µM,< 10 µM,,< 10 µM,< 10 µM
"COc1ccc(N2C(=O)N(c3ccccc3)c3nc(Nc4ccccc4)ncc3[C@H]2C)cc1 (single isomer, unassigned) [Example 2]",< 10 µM,< 10 µM,< 10 µM,< 10 µM,218 to 233 °C,,
"COc1ccc(N2C(=O)N([C@@H](C)CO)c3nc(Nc4ccccc4)ncc3C2C)cc1 (stereo partly drawn) [Example 13d, 1-(2-Hydroxy-1-(S)-methyl-ethyl)-3-(4-methoxy-phenyl)-4-methyl-7-phenylamino-3,4-dihydro-1H-pyrimido[4,5-d]pyrimidin-2-one]",,,,,165 to 180 °C,,
"COc1ccc(N2C(=O)N([C@H](C)CO)c3nc(Nc4ccccc4)ncc3[C@H]2C)cc1 [Example 14f, 1-(2-Hydroxy-1-(R)-methyl-ethyl)-3-(4-methoxy-phenyl)-4-(R)-methyl-7-phenylamino-3,4-dihydro-1H-pyrimido[4,5-d]pyrimidin-2-one]",< 10 µM,< 10 µM,< 10 µM,< 10 µM,158 to 162 °C,,
"COc1ccc(N2C(=O)N([C@@H](C)c3ccccc3)c3nc(Nc4ccccc4)ncc3C2C)cc1 (stereo partly drawn) [Example 18, 3-(4-Methoxy-phenyl)-4-methyl-7-phenylamino-1-[1-(S)-phenyl-ethyl]-3,4-dihydro-1H-pyrimido[4,5-d]pyrimidin-2-one]",< 10 µM,< 10 µM,< 10 µM,< 10 µM,,< 10 µM,< 10 µM
